Assay results published in the SangsterLogP compilation.

Assay: method code SF, from Hansch, C. & Leo, A. (1987). Log P database [Dataset]. Pomona College Medicinal Chemistry Project.

Compound	logP
CC(C)(C)[N+](=O)[O-]	1.01
O=C(/C=C/C(=O)c1ccccc1)c1ccccc1	3.16
FC(F)Oc1ccccc1	2.41
CCC(C)NC(=O)C=C(Cl)c1ccc(Cl)cc1 (stereo unspecified)	3.61
O=c1cc(-c2ccc(O)cc2)oc2ccccc12	3.2
OC(c1ccccc1)(C(F)(F)F)C(F)(F)F	3.41
Cc1ccc(Cc2c[nH]c(NCCCCc3ccc(Br)cc3C)nc2=O)cn1	3.61
O=C(CO)OCc1ccccc1	1.12
COC1C=COC2(C)Oc3c(C)c(O)c4c(O)c(c(/C=N\N5CCCCCCCCCC5)c(O)c4c3C2=O)NC(=O)/C(C)=C\C=C/C(C)C(O)C(C)C(O)C(C)C(OC(C)=O)C1C (stereo unspecified)	4.05
O=S1(=O)NC=Nc2cc(Cl)ccc21	1.01
O=c1[nH]cc(Cl)c(=O)[nH]1	-0.35
Oc1ccccc1/C=N/c1ccccc1	3.09
CC(=O)c1ccc2ccccn12	2.06
c1ccc(-c2cccs2)cc1	3.74
CC1=Nc2ccc(F)cc2S(=O)(=O)N1	0.62
C[C@@H]1C[C@H]2[C@@H]3CCC4=CC(=O)C=C[C@]4(C)[C@@]3(F)[C@@H](O)C[C@]2(C)[C@@]1(O)C(=O)CO	1.99
Fc1c(F)c(F)c(F)c(F)c1F	2.22
CC1=NCCN1	0.52
N#CN=[N+]([O-])c1cccc(F)c1	1.85
CC(=O)Nc1cn[nH]c1	-0.38
N=C(N)NS(=O)(=O)c1ccc(N)cc1	-1.22
CCCOC=O	0.83
CNP(=O)(OC)Oc1cc(Cl)c(Cl)cc1Cl (stereo unspecified)	3.06
N#CN/C(N)=N/c1ccccc1	1.05
O=[N+]([O-])C=Cc1ccoc1	1.41
O=[N+]([O-])c1ccc2cccnc2c1	1.82

Compound	logP
CNC(=O)N(C)c1ccccc1	1.02
NC(=O)C(=Cc1cccc(F)c1)C(N)=O	0.1
CC(=O)OC1OC(C)C(OC(C)=O)C(OC(C)=O)C1NC(=O)N(CCCl)N=O (stereo unspecified)	1.32
NNC(=O)NN=Cc1ccccc1	0.81
OC[C@@H]1C[C@H]1c1ccccc1	1.95
CN(C)c1cnccn1	0.96
COc1cc(OC)c(OC)c2c1CC[C@H](NC(C)=O)c1cc(=O)c(NCc3ccccc3)ccc1-2	3.58
NC(=S)NN=Cc1cccc(O)c1	1.61
C=CCc1cccc2c(=O)c(C)c(-c3ccccc3)oc12	4.67
CN(C)CCCc1ccco1	2.08
CC(C)n1cc(C(C)(C)C)nc1SSc1nc(C(C)(C)C)cn1C(C)C	4.1
COc1ccc(C(C)=O)c(O)c1	1.98
N#CCc1cccs1	1.26
C[C@@H]1C[C@H]2[C@@H]3C[C@H](F)C4=CC(=O)C=C[C@]4(C)[C@@]3(F)[C@@H](O)C[C@]2(C)[C@@]1(O)C(=O)COC(=O)C(C)(C)C	3.86
CCOC(N)=O	-0.15
C=CCO	0.17
CC(=O)C(Cc1ccccc1)C(C)=O	1.89
CCCCCCC1OC(=O)c2ccccc21 (stereo unspecified)	3.55
CNC(=O)NC	-0.96
CCOC(=O)NC1=C(N2CC2)C(=O)C(NC(=O)OCC)=C(N2CC2)C1=O	0.05
CCOc1ccccc1NC(C)=O	1.49
CCOP(=O)(OCC)SCS(=O)CC (stereo unspecified)	1.69
CCOC(=O)C(=Cc1cccc(OC)c1)C(=O)OCC	3.18
O=C(NO)c1ccccc1	0.26
NC(=O)c1ccccc1F	0.64
O=C(O)c1cccc(CSc2ccccc2)c1O	4.28

Compound	logP
CC(C)(C)c1cc(O)ccc1[N+](=O)[O-]	3.65
CCN(CC)C(=O)[C@@H]1C=C2c3cccc4[nH]cc(c34)C[C@H]2N(C)C1	2.95
O=CC(CO)OC(C=O)n1cnc2c(O)ncnc21 (stereo unspecified)	-2.11
CC(=O)OCC1CCC(NC(=O)N(CCCl)N=O)CC1 (stereo unspecified)	2.24
CC(=O)Nc1ccccc1NC(C)=O	-0.03
CS(=O)(=O)Nc1ccccc1	0.95
CC1=Nc2ccc(C)cc2S(=O)(=O)N1	0.81
CC1(C)OC(=O)c2ccccc21	1.73
Nc1ccc([N+](=O)[O-])cc1N	0.88
CC(C)CCC(=O)c1ccoc1	2.76
CC(C)Oc1ccccc1O	2.09
Cc1cccs1	2.33
CN(C)S(=O)(=O)c1ccccc1	1.35
CNP(=O)(OC)Oc1ccc(Cl)cc1 (stereo unspecified)	1.85
CC(C)C(=O)Nc1ccccc1	1.95
CCOC(=O)CON=Cc1ccc(OCCOC(=O)c2ccccc2OC)c(OC)c1	3.27
O=[N+]([O-])c1ccc(C(F)(F)F)cc1	2.55
N#CN=[N+]([O-])c1cccc([N+](=O)[O-])c1	1.45
Clc1ccc2[nH]c(CCCCCc3nc4cc(Cl)ccc4[nH]3)nc2c1	1.98
CCCc1ccncc1	2.1
CSC(=O)Nc1ccccc1	2.4
O=[N+]([O-])c1ccc2ncccc2c1	1.84
O=NN(CCCl)C(=O)NC1CCC(O)CC1 (stereo unspecified)	1.11
CCOC(=O)c1ccc(NC(=O)C(F)(F)F)cc1	2.25
